Data: ChEMBL document CHEMBL1201862, “PubChem BioAssay data set” (2004)
The source made the active and inactive calls.

Experiments:
Hexokinase HKDC1 = target: T1, Hexokinase HKDC1 (Homo sapiens, UniProt Q2TB90); assay: SAR analysis of small molecule inhibitors of hexokinase domain containing I (HKDC1). [Related pubchem assays (depositor defined):AID493160, AID493190]; format: functional
T1 sequence (Q2TB90 whole entry): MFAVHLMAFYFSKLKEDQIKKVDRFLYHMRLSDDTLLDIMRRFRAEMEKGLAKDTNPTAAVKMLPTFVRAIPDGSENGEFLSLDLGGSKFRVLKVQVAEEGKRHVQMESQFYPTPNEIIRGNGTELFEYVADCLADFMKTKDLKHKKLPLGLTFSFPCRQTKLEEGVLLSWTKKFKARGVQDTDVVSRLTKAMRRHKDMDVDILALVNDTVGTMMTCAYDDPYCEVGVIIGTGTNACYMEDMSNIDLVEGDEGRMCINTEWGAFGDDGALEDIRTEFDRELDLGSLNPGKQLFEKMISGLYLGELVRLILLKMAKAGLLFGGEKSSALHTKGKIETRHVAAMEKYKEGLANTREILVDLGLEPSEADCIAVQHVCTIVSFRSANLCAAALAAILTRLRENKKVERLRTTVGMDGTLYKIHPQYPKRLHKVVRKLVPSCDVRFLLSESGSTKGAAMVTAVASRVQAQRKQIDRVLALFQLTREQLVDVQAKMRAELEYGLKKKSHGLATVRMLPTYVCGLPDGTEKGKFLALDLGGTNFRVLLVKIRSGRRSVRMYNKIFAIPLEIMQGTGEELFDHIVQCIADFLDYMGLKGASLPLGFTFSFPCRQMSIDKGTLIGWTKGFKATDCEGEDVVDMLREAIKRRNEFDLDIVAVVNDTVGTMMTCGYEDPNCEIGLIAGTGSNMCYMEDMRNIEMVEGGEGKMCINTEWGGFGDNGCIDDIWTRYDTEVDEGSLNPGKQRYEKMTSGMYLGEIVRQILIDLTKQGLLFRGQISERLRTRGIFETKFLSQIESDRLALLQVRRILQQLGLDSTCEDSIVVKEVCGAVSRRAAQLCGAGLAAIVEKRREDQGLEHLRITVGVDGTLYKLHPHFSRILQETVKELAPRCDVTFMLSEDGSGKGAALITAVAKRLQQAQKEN

Hexokinase-1 = Hexokinase-1 (Homo sapiens, UniProt P19367); assay: SAR analysis of small molecule inhibitors of hexokinase domain containing I (HKDC1) in the hexokinase 1 selectivity assay. [Related pubchem assays (depositor defined):AID493160, AID493190]; format: functional
Sequence of Hexokinase-1 (P19367 whole entry, the tested form may be a part): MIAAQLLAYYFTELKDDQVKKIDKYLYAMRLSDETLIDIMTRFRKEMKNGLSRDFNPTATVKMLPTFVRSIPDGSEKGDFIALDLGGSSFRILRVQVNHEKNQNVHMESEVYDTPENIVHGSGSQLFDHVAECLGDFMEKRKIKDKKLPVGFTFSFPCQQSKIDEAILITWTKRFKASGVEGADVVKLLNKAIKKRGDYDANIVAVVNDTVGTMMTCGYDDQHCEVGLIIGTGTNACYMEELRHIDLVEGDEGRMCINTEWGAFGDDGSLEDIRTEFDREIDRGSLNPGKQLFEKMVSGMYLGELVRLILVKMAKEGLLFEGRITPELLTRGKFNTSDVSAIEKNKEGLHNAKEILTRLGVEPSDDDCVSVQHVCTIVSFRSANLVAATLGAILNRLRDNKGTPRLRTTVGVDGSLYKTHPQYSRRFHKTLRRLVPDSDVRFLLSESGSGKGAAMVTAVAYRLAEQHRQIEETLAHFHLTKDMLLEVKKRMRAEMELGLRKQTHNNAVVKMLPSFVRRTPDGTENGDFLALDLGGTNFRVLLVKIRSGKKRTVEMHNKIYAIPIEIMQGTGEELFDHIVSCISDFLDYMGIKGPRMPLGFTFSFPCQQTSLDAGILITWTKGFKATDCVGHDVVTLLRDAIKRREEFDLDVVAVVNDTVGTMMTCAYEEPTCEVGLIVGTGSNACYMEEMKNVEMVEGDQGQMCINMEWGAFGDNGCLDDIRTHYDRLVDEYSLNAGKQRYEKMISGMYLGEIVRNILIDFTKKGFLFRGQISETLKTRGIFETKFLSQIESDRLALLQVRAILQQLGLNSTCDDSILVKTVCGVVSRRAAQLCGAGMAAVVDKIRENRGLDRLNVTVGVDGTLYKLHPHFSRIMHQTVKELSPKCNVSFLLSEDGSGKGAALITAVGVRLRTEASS

Candida albicans [1] = assay: Candida albicans growth inhibition, agent alone, dose response, counter-screen for reversing antifungal drug resistance, CaCi-2 strain, no fluconazole, dry powder, set 4 (AID 488932); format: functional, organism-based
Candida albicans [2] = assay: growth inhibition of resistant C. albicans, dose response, CaCi-8, fluconazole, Alamar Blue, dry powder (AID 488807); format: functional, organism-based
Candida albicans [3] = assay: growth inhibition of resistant C. albicans, dose response, CaCi-8 strain, fluconazole, dry powder, set 4 (AID 488950); format: functional, organism-based
NIH3T3 = assay: cytotoxicity in NIH-3T3 fibroblasts, dose response, cytotoxicity control for antifungal drug resistance project, cell-based, Alamar Blue, fluconazole, dry powder (AID 488809); format: functional; conditions: Mus musculus
Candida albicans [4] = assay: fluconazole resistance reversal in C. albicans, dose response, CaCi-2 strain, Alamar Blue, dry powder, set 4 (AID 488943); format: functional, organism-based
[5] = target: T2, Microphthalmia-associated transcription factor (Homo sapiens, UniProt O75030); assay: TRPM1 promoter luciferase signal decrease, dose response, MITF inhibitor project, cell-based, SK-MEL-5, cherry-picked, set 3 (AID 493073); format: functional
T2 sequence (O75030 whole entry): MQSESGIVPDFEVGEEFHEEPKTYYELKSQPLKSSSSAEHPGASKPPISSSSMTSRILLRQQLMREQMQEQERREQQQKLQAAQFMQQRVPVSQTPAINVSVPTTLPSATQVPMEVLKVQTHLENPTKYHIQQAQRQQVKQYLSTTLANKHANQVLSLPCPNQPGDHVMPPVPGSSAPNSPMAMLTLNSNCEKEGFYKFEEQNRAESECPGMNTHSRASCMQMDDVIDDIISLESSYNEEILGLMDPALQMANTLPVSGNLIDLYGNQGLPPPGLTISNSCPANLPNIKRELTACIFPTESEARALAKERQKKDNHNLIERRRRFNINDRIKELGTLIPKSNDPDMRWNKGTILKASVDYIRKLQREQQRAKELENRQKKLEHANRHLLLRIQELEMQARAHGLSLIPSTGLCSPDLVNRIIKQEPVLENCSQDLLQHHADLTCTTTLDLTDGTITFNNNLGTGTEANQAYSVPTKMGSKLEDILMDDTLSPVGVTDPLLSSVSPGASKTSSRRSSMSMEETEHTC

[6] = inhibitors of firefly luciferase expression or activity, dose response, H4 neuroglioma cells, luminescence (AID 1990); format: functional, cell-based
INS1 [7] = assay: beta cell apoptosis inhibitors, cytokine rescue, dose response, luminescence, retest (AID 449756); format: functional, cell-based; conditions: Rattus norvegicus;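 further: cell death triggered by IL-1 beta plus TNF-alpha plus IFN-gamma mixture; protective hits raise ATP signal compared with cytokine alone wells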
[8] = Luminescence Cell-Based Dose Response HTS to Identify Inhibitors of 5'UTR Stem-Loop Driven Prion Protein mRNA Translation in H4 Neuroglioblastoma Cells. [Related pubchem assays: 1827 (Project Summary), 1813 (Primary HTS)]; format: functional
[9] = target: Apoptotic protease-activating factor 1 (Homo sapiens, UniProt O14727); format: functional
Sequence of Apoptotic protease-activating factor 1 (O14727 whole entry): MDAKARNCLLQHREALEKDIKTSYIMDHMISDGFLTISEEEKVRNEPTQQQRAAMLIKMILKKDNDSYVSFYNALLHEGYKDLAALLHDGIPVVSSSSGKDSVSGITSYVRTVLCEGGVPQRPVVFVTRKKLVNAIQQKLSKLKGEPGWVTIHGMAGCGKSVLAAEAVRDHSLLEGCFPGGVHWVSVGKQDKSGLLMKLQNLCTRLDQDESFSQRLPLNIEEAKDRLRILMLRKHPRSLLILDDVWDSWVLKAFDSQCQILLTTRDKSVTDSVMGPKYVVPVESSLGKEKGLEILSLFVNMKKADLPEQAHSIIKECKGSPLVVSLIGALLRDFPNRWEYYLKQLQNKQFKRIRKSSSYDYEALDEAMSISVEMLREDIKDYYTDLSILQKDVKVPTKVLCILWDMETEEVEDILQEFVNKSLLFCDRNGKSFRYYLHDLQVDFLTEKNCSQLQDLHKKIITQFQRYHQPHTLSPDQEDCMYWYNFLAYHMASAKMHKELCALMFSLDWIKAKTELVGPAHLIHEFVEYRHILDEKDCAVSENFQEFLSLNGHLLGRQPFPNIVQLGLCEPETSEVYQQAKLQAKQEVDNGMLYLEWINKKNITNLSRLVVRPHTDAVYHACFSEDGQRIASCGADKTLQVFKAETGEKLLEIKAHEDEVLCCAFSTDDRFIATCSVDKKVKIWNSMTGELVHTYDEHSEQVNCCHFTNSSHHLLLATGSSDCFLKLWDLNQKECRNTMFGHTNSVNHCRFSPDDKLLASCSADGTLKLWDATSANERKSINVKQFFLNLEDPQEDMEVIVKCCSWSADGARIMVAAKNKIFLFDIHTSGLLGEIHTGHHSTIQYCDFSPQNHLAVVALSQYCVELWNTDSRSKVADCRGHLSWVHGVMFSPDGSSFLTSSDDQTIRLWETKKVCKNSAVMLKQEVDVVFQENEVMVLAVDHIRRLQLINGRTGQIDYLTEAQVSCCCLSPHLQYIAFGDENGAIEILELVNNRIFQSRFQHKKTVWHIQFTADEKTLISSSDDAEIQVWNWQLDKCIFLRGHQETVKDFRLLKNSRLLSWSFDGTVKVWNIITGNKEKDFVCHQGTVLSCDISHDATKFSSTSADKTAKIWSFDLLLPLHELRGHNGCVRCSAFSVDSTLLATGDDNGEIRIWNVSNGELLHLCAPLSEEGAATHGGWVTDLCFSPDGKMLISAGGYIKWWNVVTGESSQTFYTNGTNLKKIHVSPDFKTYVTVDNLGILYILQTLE

[10] = inhibitors of SNCA 5'UTR-driven reporter translation, confirmation, H4 neuroglioma cells, luminescence (AID 1988); format: functional, cell-based
Paired box protein Pax-8 = Paired box protein Pax-8 (Homo sapiens, UniProt Q06710); assay: inhibitors of PAX8-driven TPO luciferase reporter, dose response, RMG-I cells, cherry-pick (AID 687027); format: functional, cell-based;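 further: luciferase reporter driven by Pax8 target thyroperoxidase promoter measured by SteadyGlo luminescence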
Sequence of Paired box protein Pax-8 (Q06710 whole entry): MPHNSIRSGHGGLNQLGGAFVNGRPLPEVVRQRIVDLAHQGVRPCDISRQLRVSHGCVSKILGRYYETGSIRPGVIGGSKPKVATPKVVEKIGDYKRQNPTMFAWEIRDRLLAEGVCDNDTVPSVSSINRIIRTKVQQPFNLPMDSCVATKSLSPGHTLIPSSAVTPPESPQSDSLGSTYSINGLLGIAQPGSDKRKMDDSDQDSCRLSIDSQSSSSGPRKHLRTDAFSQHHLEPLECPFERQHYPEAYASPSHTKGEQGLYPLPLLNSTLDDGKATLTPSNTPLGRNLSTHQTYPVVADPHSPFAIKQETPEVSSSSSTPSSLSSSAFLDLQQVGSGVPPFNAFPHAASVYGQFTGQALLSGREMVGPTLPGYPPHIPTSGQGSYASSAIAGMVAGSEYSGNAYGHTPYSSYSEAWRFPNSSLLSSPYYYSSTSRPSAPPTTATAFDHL

INS1 [11] = assay: protection from cytokine-driven beta-cell apoptosis, dose response, JC-1 fluorescence, INS-1E, dry powder, set 2 (AID 488867); format: functional, cell-based; conditions: Rattus norvegicus
[12] = inhibitors of cytokine-induced nitrite release, dose response, cell-based, Griess absorbance, INS-1E, dry powder, set 3 (AID 488870); format: functional; conditions: Rattus norvegicus
INS1 [13] = assay: inhibitors of cytokine-induced nitrite release, dose response, cell-based, Griess absorbance, INS-1E, dry powder, set 2 (AID 488868); format: functional; conditions: Rattus norvegicus
[14] = target: T3, Short transient receptor potential channel 4 (Mus musculus, UniProt Q9QUQ5); assay: mouse TRPC4 channel activators, dose response, cell-based, HEK293 TRPC4/mu-opioid, Fluo-4 calcium (AID 434937); format: functional
T3 sequence (Q9QUQ5 whole entry): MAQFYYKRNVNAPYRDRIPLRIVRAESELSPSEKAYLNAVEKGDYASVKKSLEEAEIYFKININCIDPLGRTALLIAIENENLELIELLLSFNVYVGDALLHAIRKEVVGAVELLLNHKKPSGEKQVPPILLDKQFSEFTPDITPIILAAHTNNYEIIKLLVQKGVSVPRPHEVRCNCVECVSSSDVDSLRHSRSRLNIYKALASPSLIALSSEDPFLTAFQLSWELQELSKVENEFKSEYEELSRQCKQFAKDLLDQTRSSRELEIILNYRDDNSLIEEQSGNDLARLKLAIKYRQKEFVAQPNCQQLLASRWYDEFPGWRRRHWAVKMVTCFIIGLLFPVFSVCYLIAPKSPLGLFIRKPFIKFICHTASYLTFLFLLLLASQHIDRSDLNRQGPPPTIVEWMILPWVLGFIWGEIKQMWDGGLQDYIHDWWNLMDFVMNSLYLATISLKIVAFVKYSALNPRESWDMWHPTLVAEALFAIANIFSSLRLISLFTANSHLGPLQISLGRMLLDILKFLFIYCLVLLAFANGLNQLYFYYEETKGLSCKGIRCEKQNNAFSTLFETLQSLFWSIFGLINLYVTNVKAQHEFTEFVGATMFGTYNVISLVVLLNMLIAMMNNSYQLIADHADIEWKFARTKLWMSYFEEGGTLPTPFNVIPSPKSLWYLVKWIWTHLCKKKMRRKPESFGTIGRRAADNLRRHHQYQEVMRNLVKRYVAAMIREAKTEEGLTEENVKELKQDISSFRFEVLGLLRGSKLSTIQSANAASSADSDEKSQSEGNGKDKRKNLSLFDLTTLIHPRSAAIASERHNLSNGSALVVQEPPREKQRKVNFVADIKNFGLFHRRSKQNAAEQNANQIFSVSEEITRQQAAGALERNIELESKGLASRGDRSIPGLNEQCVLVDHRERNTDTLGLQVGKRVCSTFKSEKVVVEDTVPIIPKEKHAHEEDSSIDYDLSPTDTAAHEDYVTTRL

Beta-galactosidase = Beta-galactosidase (Escherichia coli, UniProt Q8VNN2); assay: PubChem AID 485352; format: functional
Sequence of Beta-galactosidase (Q8VNN2 whole entry): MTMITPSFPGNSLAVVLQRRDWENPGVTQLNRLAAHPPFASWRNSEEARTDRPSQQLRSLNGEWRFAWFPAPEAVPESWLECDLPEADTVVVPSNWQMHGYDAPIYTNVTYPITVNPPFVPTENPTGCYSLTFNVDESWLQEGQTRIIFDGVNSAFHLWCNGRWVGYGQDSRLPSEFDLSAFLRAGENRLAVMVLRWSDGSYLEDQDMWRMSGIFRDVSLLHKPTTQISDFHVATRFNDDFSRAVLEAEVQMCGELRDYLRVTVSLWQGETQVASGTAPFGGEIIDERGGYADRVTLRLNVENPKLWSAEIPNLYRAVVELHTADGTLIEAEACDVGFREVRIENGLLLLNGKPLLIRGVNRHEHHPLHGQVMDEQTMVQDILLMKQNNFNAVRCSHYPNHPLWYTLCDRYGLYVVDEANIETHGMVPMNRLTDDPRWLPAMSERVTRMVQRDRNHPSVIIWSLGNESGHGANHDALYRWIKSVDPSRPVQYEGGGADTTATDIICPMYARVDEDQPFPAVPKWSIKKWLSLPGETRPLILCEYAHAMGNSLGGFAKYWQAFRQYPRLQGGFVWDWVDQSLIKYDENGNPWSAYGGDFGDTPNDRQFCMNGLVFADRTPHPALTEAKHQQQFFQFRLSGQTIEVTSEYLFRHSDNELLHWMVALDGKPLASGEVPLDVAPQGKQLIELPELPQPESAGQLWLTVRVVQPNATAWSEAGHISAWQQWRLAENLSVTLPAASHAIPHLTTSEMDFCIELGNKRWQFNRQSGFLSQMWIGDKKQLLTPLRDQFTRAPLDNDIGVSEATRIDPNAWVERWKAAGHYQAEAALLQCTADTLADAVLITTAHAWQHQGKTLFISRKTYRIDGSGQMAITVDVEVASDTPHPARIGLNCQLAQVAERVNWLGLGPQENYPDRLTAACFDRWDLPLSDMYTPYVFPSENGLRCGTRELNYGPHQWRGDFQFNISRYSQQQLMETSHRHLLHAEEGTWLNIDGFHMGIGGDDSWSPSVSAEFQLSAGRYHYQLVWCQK

Leucine aminopeptidase = target: T4, Leucine aminopeptidase (Plasmodium falciparum 3D7, UniProt Q8IL11); assay: P. falciparum M17LAP inhibitors, primary screen, biochemical, fluorogenic H-Leu-NHMec substrate, 1536-well (AID 1619); format: functional
T4 sequence (Q8IL11 whole entry): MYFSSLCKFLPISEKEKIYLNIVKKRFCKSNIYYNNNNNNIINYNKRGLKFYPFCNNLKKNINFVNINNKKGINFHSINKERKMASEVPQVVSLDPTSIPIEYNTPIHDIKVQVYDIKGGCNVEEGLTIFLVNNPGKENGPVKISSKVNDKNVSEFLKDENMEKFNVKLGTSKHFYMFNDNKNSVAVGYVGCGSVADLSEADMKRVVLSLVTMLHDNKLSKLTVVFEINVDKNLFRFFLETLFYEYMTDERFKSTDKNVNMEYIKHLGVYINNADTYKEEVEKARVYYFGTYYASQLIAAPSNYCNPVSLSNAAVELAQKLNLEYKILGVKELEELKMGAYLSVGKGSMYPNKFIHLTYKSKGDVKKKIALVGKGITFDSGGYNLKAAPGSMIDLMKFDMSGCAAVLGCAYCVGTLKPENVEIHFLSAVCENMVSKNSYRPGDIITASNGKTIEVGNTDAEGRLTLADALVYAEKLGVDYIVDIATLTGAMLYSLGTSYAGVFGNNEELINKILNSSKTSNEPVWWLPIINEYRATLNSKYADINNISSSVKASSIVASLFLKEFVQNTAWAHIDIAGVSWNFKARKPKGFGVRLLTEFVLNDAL

[15] = target: Type-1 angiotensin II receptor (Homo sapiens, UniProt P30556); assay: AT1 receptor antagonists, dose response, selectivity assay for APJ receptor antagonist project, cell-based, uHTS hits (AID 463214); format: functional;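 further: antagonist potency against angiotensin II stimulated AT1 response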
Sequence of Type-1 angiotensin II receptor (P30556 whole entry): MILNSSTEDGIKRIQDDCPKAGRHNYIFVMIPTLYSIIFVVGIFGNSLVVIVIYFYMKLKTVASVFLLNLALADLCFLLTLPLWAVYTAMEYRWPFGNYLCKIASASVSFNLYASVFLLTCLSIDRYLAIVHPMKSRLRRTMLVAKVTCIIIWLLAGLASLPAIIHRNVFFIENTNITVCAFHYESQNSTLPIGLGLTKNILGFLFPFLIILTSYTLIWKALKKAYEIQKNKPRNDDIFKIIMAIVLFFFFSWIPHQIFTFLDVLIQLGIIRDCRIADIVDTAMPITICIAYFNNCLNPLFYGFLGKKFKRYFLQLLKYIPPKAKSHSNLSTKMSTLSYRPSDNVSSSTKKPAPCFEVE

[16] = cytotoxicity toward NIH3T3 fibroblasts, dose response, counter-screen, cell-based, ATP luminescence, mouse fibroblasts (AID 2010); format: functional;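 further: cells exposed to compound for about 90 hours before reading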
[17] = inhibitors of intracellular T. cruzi replication, confirmation, NIH3T3 host cells, beta-gal luminescence (AID 2044); format: functional, cell-based;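 further: intracellular parasites grown in NIH/3T3 mouse fibroblasts as host cells; luminescent beta-galactosidase reporter signal from transgenic T. cruzi replicating inside host cells; inhibitors lower the luminescence signal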
[18] = target: Beta-2 adrenergic receptor (Homo sapiens, UniProt P07550); assay: beta2AR agonists driving receptor internalization, dose response, cell-based, FAP fluorogen, flow cytometry, cherry pick 1 (AID 588763); format: functional
Sequence of Beta-2 adrenergic receptor (P07550 whole entry): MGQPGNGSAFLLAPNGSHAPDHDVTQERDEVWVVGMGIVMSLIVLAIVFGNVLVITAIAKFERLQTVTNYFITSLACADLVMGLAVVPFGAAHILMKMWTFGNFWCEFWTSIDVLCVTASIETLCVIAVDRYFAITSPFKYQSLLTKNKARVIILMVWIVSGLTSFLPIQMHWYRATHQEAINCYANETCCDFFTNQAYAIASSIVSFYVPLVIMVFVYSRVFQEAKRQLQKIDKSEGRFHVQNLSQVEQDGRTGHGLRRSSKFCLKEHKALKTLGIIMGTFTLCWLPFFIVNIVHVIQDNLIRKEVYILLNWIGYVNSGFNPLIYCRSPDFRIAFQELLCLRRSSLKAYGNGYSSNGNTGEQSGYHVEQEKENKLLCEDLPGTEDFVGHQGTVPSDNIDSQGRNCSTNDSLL

SMILES: COc1ccc(/C=C/c2nc3ccccc3c(=O)n2Cc2ccccc2)cc1OC
- IC50 (Hexokinase HKDC1): > 80 µM (inactive)
- IC50 (Hexokinase-1): > 80 µM (inactive)

SMILES: O=C(c1csc2ccccc12)N1CCN(c2ccnc3cc(Cl)ccc23)CC1
- AC50 (Candida albicans [1]): 106 µM (active)
- AC50 (Candida albicans [2]): 2.72 µM (active)
- AC50 (Candida albicans [3]): 1.69 µM (active)
- AC50 (NIH3T3): 4.47 µM (active)
- AC50 (Candida albicans [4]): 0.946 µM (active)

SMILES: CC(=O)Nc1ccc(S(=O)(=O)NC2=C(N3CCN(C)CC3)C(=O)c3ccccc3C2=O)cc1
- AC50 [5]: 3.65 µM (active)
- EC50 [6]: 15.6 µM (active)
- AC50 (INS1 [7]): 3.99 µM (active)
- EC50 [8]: > 120 µM (not active)
- IC50 [9]: 29.7 µM (active)
- EC50 [10]: 11.1 µM (active)

SMILES: Cc1ccc(S(=O)(=O)N(C)C[C@H]2Oc3c(NC(=O)Nc4cccc5ccccc45)cccc3C(=O)N([C@@H](C)CO)C[C@@H]2C)cc1
- AC50 (Paired box protein Pax-8): 5.94 µM (active)
- AC50 (INS1 [11]): 38.8 µM (active)
- AC50 [12]: > 195 µM (inactive)
- AC50 (INS1 [13]): 45.6 µM (active)

SMILES: CC(C)(C)c1cc(CCC(=O)NNC(=S)NC(=O)c2ccccc2)cc(C(C)(C)C)c1O
- EC50 [14]: 3.35 µM (active)
- EC50 (Beta-galactosidase): > 40 µM (inactive)
- IC50 (Leucine aminopeptidase): 32.2 µM (active)
- AC50 (INS1 [7]): 3.99 µM (active)
- IC50 [15]: 35.5 µM (not active)
- EC50 [16]: 15.7 µM (active)
- EC50 [17]: 0.382 µM (active)

SMILES: Nc1cccc(C#Cc2ccc3c(=O)c4ccccc4oc3c2)c1
- EC50 [18]: 0.245 µM (active)
